Source: patent publication US20230302022A1, “PREVENTING OR MITIGATING CHEMOTHERAPY INDUCED ALOPECIA USING VITAMIN D” (priority 2016, published 2023)
“Also recorded” adds a separate entry of the source.

How the values were obtained:
[1] = Quantification of calcitriol in ex vivo porcine skin layers after 7 days of dermal administration; settings: for Stratum Corneum, Calcitriol Recovered: 10 μg/mL, mean ± SD
Description: The placebo and test articles were administered dermally twice daily approximately 6 hours apart for 7 days during the study. The dose concentrations were 0, 1, 3, 10, 30, and 100 μg/mL, and administered at an application rate of 4 mg/cm^2 (equivalent to 144 mg or 166 μL of test solution). Prior to initiation of administration (Days −4 and −5 for Groups 1 and 2, respectively), the hair was clipped from the application sites using an electric clipper. Care was taken to avoid abrading the skin. The dorsal surface of each animal was divided into five application sites for Group 1 and two application sites for Group 2. Each application site was approximately 6×6 cm with at least a 2 cm space between each site. The placebo and test article formulations were uniformly applied over the specified application site with a glass stirring rod or appropriate instrument. Prior to dosing, the residual test article from the previous dose was gently removed using a soft paper towel (i.e., WyPall®) moistened with tap water.
At the end of the study, the skin was reflected from a ventral midline incision, and sections of treated and untreated skin were collected and preserved. Sections of each 6×6 cm dosing site were first thoroughly surface washed with a mild soap and water mixture (e.g., 1% Ivory Soap in water or equivalent) to remove any residual topical test formulation. The washed skin sections were then wiped clean with ethanol, and were excised down to and including the adipose layer. If the area to be excised is larger than the dosed area, the dosed area was demarked with indelible ink to delineate the skin area that was dosed. The 1.5 cm×1.5 cm sections were laid flat, wrapped in two layers of Saran wrap (or equivalent) and flash frozen in liquid nitrogen. The samples were stored at −70° C. and shipped on dry ice via overnight courier for analysis. Each skin section was identified as appropriate (e.g., animal identification, study number, date, etc.).
Upon arrival at the analysis site, skin sections were placed in water tight plastic bag and thawed by emersion in warm water (˜30° C.-35° C.). Each skin section was gently rinsed with distilled de-ionized water to remove any residual test article and blood. All subcutaneous tissue (e.g., adipose) was removed by manual scalpel ablation. Within the central region of the dosed area, four individual 1 cm^2 circles (replicates) were demarked, and each site was subsequently identified and the actual area recorded. […] The skin sections were weighed and the weight recorded. […]
Following tape stripping, the skin was separated into epidermis (sans stratum corneum, simply referred to herein after as “epidermis”) and dermis by heat exposure to 60° C. for approximately 1-1.5 minutes. […] The epidermis and dermis were weighed and the weight recorded. […]

[2] = tested on: EMT-6 murine breast tumor; settings: topical pretreatment + cyclophosphamide vs either agent alone; cited from earlier work
BALB/c mice = settings: cited from earlier work
NCI-ES-0808 = test: Cell growth / viability assay, NCI-ES-0808; format: cell-based
Description: The drug treatment period was usually three days. At the end of the three days, the background OD of the 96-well plate was read at 280 nm, before 20 μL of the “Substrate Cell Titer 96 Aqueous One Solution Reagent” (Promega) was added to each well. […] The net OD increase was calculated by subtracting the pre-substrate OD reading. The impact of the drug on the cells was calculated by comparing the OD at different concentrations in relation to the OD of the control wells (without the drug). The results of the Net OD as a function of drug concentration was plotted and used to determine ED50 values.

HEKa cells [3] = test: Real-time PCR Heat Shock Protein array, calcitriol-treated HEKa cells; format: cell-based, human; settings: 0.1 μg/mL calcitriol, two independent experiments
Description: The PCR array analysis utilized two groups of genes—those related to Heat Shock Proteins (SABiosciences), and those related to Neuroscience Ion Channels and Transporters (SABioscience). Cell culture: Primary human epidermal keratinocytes (HEKa) were maintained in Epilife Medium (Cascade Biologics, Inc., Portland OR) along with Human Keratinocyte Growth Supplement (Cascade Biologics, Inc., Portland OR). […] D3 treatment of HEKa cells: […] Vehicle control group of cells were treated with 5 mL media containing 1 μL of ethanol. Cells were harvested 3, 6, 16, 24, 48, or 72 hours after the start of the treatment. RNA isolation: Cells were lysed for RNA isolation at different treatment times using the RNeasy Mini kit (Qiagen, Inc., Valencia CA) following the manufacturer's instructions. RNA was quantified by measuring optical density at 260 nm. First Strand Synthesis: […] Real-time PCR: Products from the first strand synthesis were diluted with water, mixed with the SYBR green master mix (SABiosciences., Frederick MD) and loaded onto PCR arrays. Real time PCR was run on the PCR Arrays (Heat Shock Protein Arrays, and Neuroscience and Ion Channel Arrays) (SABiosciences, Frederick MD) on a Biorad CFX96. Data analyses were performed using the PCR array data analysis software available on the SABiosciences website.

HEKa cells [4] = test: 2-D gel electrophoresis proteomic analysis of calcitriol-treated HEKa cells; format: cell-based, human; settings: 0.1 μg/mL calcitriol, 3, 6, 24 hours vs control
Description: The cell pellets were then analyzed using proteomic methods, such as 2-D gel and Western blot analysis. […] In all, analysis of about 458 protein spots in the comparative study was performed, comparing the control sample against the 3-, 6-, and 24-hour treatment samples. Six spots showing statistically significant differential changes were identified. These spots were excised, and their protein contents subjected to sequence identification by trypsin digestion and mass spectrometry characterization.

HEKa cells [5] = test: HEKa keratinocyte growth / viability assay, with and without chemotherapy drugs; format: cell-based, human
Description: All experiments were conducted in 96-well plate format. Each well contained the same amount of HEKa cells in about 100 μL of media (usually between 2,000-5,000 cell/well). Calcitriol was dissolved in ethanol to make a stock solution. The stock solution was serially diluted 1:2 in the growth media, covering a range of between 4.0 μg/mL to about 15.5 ng/mL (9 test concentrations). […] All experiments were conducted in duplicates.
In these experiments, a selected commercial drug was serially diluted, starting at a concentration 4-times higher than the final desired concentration for cell incubation.
The drug treatment period was usually three days. At the end of the three days, the background OD of the 96-well plate was read at 280 nm, before 20 μL of the “Substrate Cell Titer 96 Aqueous One Solution Reagent” (Promega) was added to each well. The plate was returned to the 37° C. incubator, and its OD at 490 nm was read each hour until an OD of approximately 1.5 was reached. The net OD increase was calculated by subtracting the pre-substrate OD reading.
The impact of the drug on the cells was calculated by comparing the OD at different concentrations in relation to the OD of the control wells (without the drug). The results of the Net OD as a function of drug concentration was plotted and used to determine ED50 values.
Then these pretreated cells were utilized to set up the cell based assay.
Three commonly used chemotherapy drugs (doxorubicin, cisplatin and erlotinib) were selected to evaluate calcitriol treated cells. […] In these experiments, the commercial drugs were serially diluted, starting at a concentration 4-times higher than the final desired concentration for cell incubation.

guinea pigs = test: Skin sensitization study in guinea pigs; format: in vivo, guinea pig; settings: 5.7 μg/g
Description: Induction phase. […] The induction exposure was repeated at the same skin site once a week for 2 weeks. The vehicle and positive control groups composed of 5 male and 5 female guinea pigs, each of which were exposed in the same manner as the treatment group to propylene glycol/anhydrous ethanol or hexylcinnamic aldehyde (a known mild to moderate skin-sensitizer), respectively. Skin reactions were scored and recorded at approximately 24 hours after patch removal during the induction phase. After the last induction exposure, the animals remained untreated for two weeks before the challenge exposure.
Challenge phase. The challenge exposure was conducted two weeks after the final topical induction. The test article was topically applied to the Vehicle Control and Test Group at the concentration determined to be non-irritating in the irritation screen. The Vehicle Control Group was also challenged with the Vehicle. The Positive Control Groups received the positive control article. The challenge application sites were scored at approximately 24 and 48 hours after patch removal.

chloroleukemia C51 cells = settings: 0.2 μg pretreatment prior to cyclophosphamide; cited from earlier work
[6] = 0.1 μg/mL calcitriol, low dosage levels

C=C1/C(=C\C=C2/CCC[C@]3(C)[C@@H]([C@H](C)CCCC(C)(C)O)CC[C@@H]23)C[C@@H](O)C[C@@H]1O [Calcitriol, (5Z,7E)-9,10-secocholesta-5,7.10(19Hriene-1 a,33.25-triol]
skin layers in which calcitriol was measurable ([1]; 1-100 μg/mL, exception: dermis at 100 μg/mL in a single male minipig): measurable in most stratum corneum and epidermal samples, but not in the dermal samples | applied dose correlation to epidermal tissue level ([1]; 3 to 100 μg/mL applications): near linear increase | Stratum Corneum, Calcitriol Recovered ([1]; Female Minipigs): 1.65 ± 1.80 (3) ng/cm^2 | Stratum Corneum, Calcitriol Recovered ([1]; Male Minipigs): 59.6 ± 14.1 (3) ng/cm^2 | rate of tumor growth [2]: greater reduction in the rate of tumor growth | protective effect in tumor-bearing female mice (BALB/c mice; EMT-6, vs female mice without tumor and tumor-bearing males): more efficient protective effect | protective effect in tumor-bearing male mice (BALB/c mice; EMT-6 tumor cells): diminished | degree of CIA (BALB/c mice; male BALB/c mice, topical 5 days prior to cyclophosphamide): significantly reduced the degree of CIA in a dose-dependent manner | apoptosis staining pattern vs unexposed mice (BALB/c mice; mouse, in vivo): no significant differences in apoptosis staining pattern | effect of calcitriol on cell growth (NCI-ES-0808): no significant growth promoting or growth inhibiting effects | effect of calcitriol on the cytotoxic effect of Doxorubicin (NCI-ES-0808): did not appear to appreciably alter | DNAJC6 mRNA Regulation Pattern (HEKa cells [3]): Downregulated | HSF4 mRNA Regulation Pattern (HEKa cells [3]): Upregulated at 48 hours | HSPA2 mRNA Regulation Pattern (HEKa cells [3]): Upregulated at 48 hours | HSPB1 mRNA Regulation Pattern (HEKa cells [3]): Down regulated at 48 hours | Galectin 1 (LGALS1) Response (HEKa cells [4]): up at 6 and 24 | Glutathione S-transferase (GST) Response (HEKa cells [4]): up at 3, 6, and 24 | Keratin 17 (KR17) Response (HEKa cells [4]): down at 24 hours | S100 A9 (Calprotectin) Response (HEKa cells [4]): down at 6 and 24 | S100 A13 Response (HEKa cells [4]): up at 6 and 24 | protective effect against 5-FU (HEKa cells [5]; 0.1 μg/mL calcitriol): protects; also recorded: mild protective effect; also recorded: some levels of protection | protective effect against doxorubicin (HEKa cells [5]; 0.1 μg/mL calcitriol): did not appear to provide a significant protective effect | protective effect against gemcitabine (HEKa cells [5]; 0.1 μg/mL calcitriol): mild protective effect | protective effect against irinotecan (HEKa cells [5]; 0.1 μg/mL calcitriol): positive protective effect | protective effect against paclitaxel (Paxlitaxol) (HEKa cells [5]; 0.1 μg/mL calcitriol): some protective effects | protective effect against tamoxifen (HEKa cells [5]; 0.1 μg/mL calcitriol): weak | HEKa growth after prolonged calcitriol exposure (HEKa cells [5]; 0.1 μg/mL calcitriol for two cell passages): stopped growing | protection against carboplatin (HEKa cells [5]; [6]): moderate level of protection | protection against cisplatin (HEKa cells [5]; [6]): moderate level of protection | protective effect against kinase inhibitor drugs (erlotinib, gefitinib, sorafenib, dasatinib, staurosporin) (HEKa cells [5]; 0.1 μg/mL calcitriol, low drug dosage levels): protected the HEKa cells | interaction (synergy) between calcitriol and commercial drugs (HEKa cells [5]; 0.1 μg/mL calcitriol, 5-FU, doxorubicin, tamoxifen, irinotecan, paclitaxel, carboplatin, staurosporin, vincristine, cisplatin, erlotinib, gemcitabine, imatinib, gefitinib, sorafenib, dasatinib): no interaction | chemoprotective effect: pre-treatment group vs simultaneous treatment group (HEKa cells [5]; 0.1 μg/mL calcitriol, doxorubicin, cisplatin, erlotinib): nearly identical | stimulation of HEKa cell growth (HEKa cells [5]; lowest levels of calcitriol (tested range about 0.008-2.0 μg/mL)): 10-20% | calcitriol concentration at which HEKa cell growth is inhibited (HEKa cells [5]; tested range about 0.008-2.0 μg/mL): ≥ 1.0 µg/mL | skin sensitization (guinea pigs): not determined to be a sensitizer | survival rate vs ethanol vehicle (chloroleukemia C51 cells): No statistically significant difference in the survival rate
